Assay results published in PubChem BioAssay (NCI).
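Dose response: 5 concentrations. Exposure: 48 h. Format: 96-well plates. Endpoint: linear interpolation; highest concentration if not reached. TGI: concentration producing complete growth inhibition.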

Tests used:
Experiment in all cases: inhibition of tumour cell growth, NCI panel, 48 h
786-0 renal = tested on: 786-0 renal
A498 renal = tested on: A498 renal
A549 NSCLC = tested on: A549 NSCLC
ACHN renal = tested on: ACHN renal
BT-549 breast = tested on: BT-549 breast
CAKI-1 renal = tested on: CAKI-1 renal
CCRF-CEM leukemia = tested on: CCRF-CEM leukemia
COLO 205 colon = tested on: COLO 205 colon
DU-145 prostate = tested on: DU-145 prostate
EKVX NSCLC = tested on: EKVX NSCLC
HCC-2998 colon = tested on: HCC-2998 colon
HCT-15 colon = tested on: HCT-15 colon
HOP-62 NSCLC = tested on: HOP-62 NSCLC
HOP-92 NSCLC = tested on: HOP-92 NSCLC
HS 578T breast = tested on: HS 578T breast
HT29 colon = tested on: HT29 colon
IGROV1 ovarian = tested on: IGROV1 ovarian
K-562 leukemia = tested on: K-562 leukemia
KM12 colon = tested on: KM12 colon
LOX IMVI melanoma = tested on: LOX IMVI melanoma
M14 melanoma = tested on: M14 melanoma
MALME-3M melanoma = tested on: MALME-3M melanoma
MCF7 breast = tested on: MCF7 breast
MDA-MB-231 breast = tested on: MDA-MB-231 breast
MDA-MB-435 = tested on: MDA-MB-435
MDA-N = tested on: MDA-N
MOLT-4 leukemia = tested on: MOLT-4 leukemia
NCI-H23 lung = tested on: NCI-H23 lung
NCI-H460 lung = tested on: NCI-H460 lung
NCI-H522 lung = tested on: NCI-H522 lung
NCI/ADR-RES ovarian = tested on: NCI/ADR-RES ovarian
OVCAR-3 ovarian = tested on: OVCAR-3 ovarian
OVCAR-4 ovarian = tested on: OVCAR-4 ovarian
OVCAR-5 ovarian = tested on: OVCAR-5 ovarian
OVCAR-8 ovarian = tested on: OVCAR-8 ovarian
PC-3 prostate = tested on: PC-3 prostate
RPMI-8226 leukemia = tested on: RPMI-8226 leukemia
SF-268 CNS = tested on: SF-268 CNS
SF-295 CNS = tested on: SF-295 CNS
SK-MEL-2 melanoma = tested on: SK-MEL-2 melanoma
SK-MEL-28 melanoma = tested on: SK-MEL-28 melanoma
SK-MEL-5 melanoma = tested on: SK-MEL-5 melanoma
SK-OV-3 ovarian = tested on: SK-OV-3 ovarian
SN12C renal = tested on: SN12C renal
SNB-19 CNS = tested on: SNB-19 CNS
SR leukemia = tested on: SR leukemia
SW-620 colon = tested on: SW-620 colon
T-47D breast = tested on: T-47D breast
TK-10 renal = tested on: TK-10 renal
U251 CNS = tested on: U251 CNS
UACC-257 melanoma = tested on: UACC-257 melanoma
UACC-62 melanoma = tested on: UACC-62 melanoma
UO-31 renal = tested on: UO-31 renal
HCT-116 colon = tested on: HCT-116 colon
HL-60(TB) leukemia = tested on: HL-60(TB) leukemia
NCI-H226 lung = tested on: NCI-H226 lung
RXF 393 renal = tested on: RXF 393 renal
SF-539 CNS = tested on: SF-539 CNS
SNB-75 CNS = tested on: SNB-75 CNS

Compound: NS(=O)(=O)c1ccc(Nc2c3ccccc3nc3c(C(=O)NCCCN(CCO)CCO)cccc23)cc1
- TGI (786-0 renal): 45.2 µM
- TGI (A498 renal): > 100 µM
- TGI (A549 NSCLC): 69.2 µM
- TGI (ACHN renal): > 100 µM
- TGI (BT-549 breast): 52.7 µM
- TGI (CAKI-1 renal): > 100 µM
- TGI (CCRF-CEM leukemia): 58.6 µM
- TGI (COLO 205 colon): 30.2 µM
- TGI (DU-145 prostate): > 100 µM
- TGI (EKVX NSCLC): > 100 µM
- TGI (HCC-2998 colon): 54.8 µM
- TGI (HCT-15 colon): > 100 µM
- TGI (HOP-62 NSCLC): 66.1 µM
- TGI (HOP-92 NSCLC): > 100 µM
- TGI (HS 578T breast): 53.8 µM
- TGI (HT29 colon): 77 µM
- TGI (IGROV1 ovarian): 68.2 µM
- TGI (K-562 leukemia): > 100 µM
- TGI (KM12 colon): 38.5 µM
- TGI (LOX IMVI melanoma): 59.1 µM
- TGI (M14 melanoma): 45.1 µM
- TGI (MALME-3M melanoma): 42 µM
- TGI (MCF7 breast): 20.1 µM
- TGI (MDA-MB-231 breast): > 100 µM
- TGI (MDA-MB-435): 37.2 µM
- TGI (MDA-N): 41.9 µM
- TGI (MOLT-4 leukemia): 99 µM
- TGI (NCI-H23 lung): 53.8 µM
- TGI (NCI-H460 lung): 36.9 µM
- TGI (NCI-H522 lung): 44.1 µM
- TGI (NCI/ADR-RES ovarian): > 100 µM
- TGI (OVCAR-3 ovarian): 62.5 µM
- TGI (OVCAR-4 ovarian): > 100 µM
- TGI (OVCAR-5 ovarian): 98.4 µM
- TGI (OVCAR-8 ovarian): > 100 µM
- TGI (PC-3 prostate): > 100 µM
- TGI (RPMI-8226 leukemia): 78.7 µM
- TGI (SF-268 CNS): 45.5 µM
- TGI (SF-295 CNS): > 100 µM
- TGI (SK-MEL-2 melanoma): 58.9 µM
- TGI (SK-MEL-28 melanoma): 41.9 µM
- TGI (SK-MEL-5 melanoma): 32.4 µM
- TGI (SK-OV-3 ovarian): > 100 µM
- TGI (SN12C renal): 46.5 µM
- TGI (SNB-19 CNS): 45.7 µM
- TGI (SR leukemia): 40.6 µM
- TGI (SW-620 colon): 52.7 µM
- TGI (T-47D breast): 44.2 µM
- TGI (TK-10 renal): > 100 µM
- TGI (U251 CNS): 31.7 µM
- TGI (UACC-257 melanoma): 67.6 µM
- TGI (UACC-62 melanoma): 57.8 µM
- TGI (UO-31 renal): > 100 µM

Compound: c1cc(C[S+]2CCCC2)ccc1C[S+]1CCCC1
- TGI (786-0 renal): > 100 µM
- TGI (A498 renal): > 100 µM
- TGI (A549 NSCLC): > 100 µM
- TGI (ACHN renal): > 100 µM
- TGI (BT-549 breast): > 100 µM
- TGI (CAKI-1 renal): > 100 µM
- TGI (CCRF-CEM leukemia): > 100 µM
- TGI (COLO 205 colon): > 100 µM
- TGI (DU-145 prostate): > 100 µM
- TGI (EKVX NSCLC): > 100 µM
- TGI (HCC-2998 colon): > 100 µM
- TGI (HCT-116 colon): > 100 µM
- TGI (HCT-15 colon): > 100 µM
- TGI (HL-60(TB) leukemia): > 100 µM
- TGI (HOP-62 NSCLC): > 100 µM
- TGI (HOP-92 NSCLC): > 100 µM
- TGI (HS 578T breast): > 100 µM
- TGI (HT29 colon): > 100 µM
- TGI (IGROV1 ovarian): > 100 µM
- TGI (K-562 leukemia): > 100 µM
- TGI (KM12 colon): > 100 µM
- TGI (LOX IMVI melanoma): > 100 µM
- TGI (M14 melanoma): > 100 µM
- TGI (MALME-3M melanoma): > 100 µM
- TGI (MCF7 breast): > 100 µM
- TGI (MDA-MB-231 breast): > 100 µM
- TGI (MDA-MB-435): > 100 µM
- TGI (MDA-N): > 100 µM
- TGI (MOLT-4 leukemia): > 100 µM
- TGI (NCI-H226 lung): > 100 µM
- TGI (NCI-H23 lung): > 100 µM
- TGI (NCI-H460 lung): > 100 µM
- TGI (NCI-H522 lung): > 100 µM
- TGI (NCI/ADR-RES ovarian): > 100 µM
- TGI (OVCAR-3 ovarian): > 100 µM
- TGI (OVCAR-4 ovarian): > 100 µM
- TGI (OVCAR-5 ovarian): > 100 µM
- TGI (OVCAR-8 ovarian): > 100 µM
- TGI (PC-3 prostate): > 100 µM
- TGI (RPMI-8226 leukemia): > 100 µM
- TGI (RXF 393 renal): > 100 µM
- TGI (SF-268 CNS): > 100 µM
- TGI (SF-295 CNS): > 100 µM
- TGI (SF-539 CNS): > 100 µM
- TGI (SK-MEL-28 melanoma): > 100 µM
- TGI (SK-MEL-5 melanoma): > 100 µM
- TGI (SK-OV-3 ovarian): > 100 µM
- TGI (SN12C renal): > 100 µM
- TGI (SNB-19 CNS): > 100 µM
- TGI (SNB-75 CNS): > 100 µM
- TGI (SR leukemia): > 100 µM
- TGI (SW-620 colon): > 100 µM
- TGI (T-47D breast): > 100 µM
- TGI (TK-10 renal): > 100 µM
- TGI (U251 CNS): > 100 µM
- TGI (UACC-257 melanoma): > 100 µM
- TGI (UACC-62 melanoma): > 100 µM
- TGI (UO-31 renal): > 100 µM
